Read-outs that look alike come from different tables or passages of the source.
Experiments:
[1] = pKa / pKB by potentiometric acid-base titration and formation constant log(KS); conditions: calculated from pKA of acid and pKB of base
Description: Determination of formation constant pKs
Zabrze, Poland). For the measurement of pKA acids, 0.1 M NaOH was used. In order to
ester hydrochloride, HCl aqueous solution, was added in an amount that allowed reach-
After that, an acid-base titration was made out by adding dropwise 5 mM

[2] = system: Micrococcus Luteus; assay: Disc diffusion antimicrobial susceptibility test, Micrococcus luteus; format: cell-based
[3] = system: Staphylococcus epidermidis; assay: Disc diffusion antimicrobial susceptibility test, Staphylococcus epidermidis; format: cell-based; parameters: key to Inhibition diameter: -: no growth of the organism
Description: (§1) The plates were incubated for 24 h at 37 °C.

[4] = Thermogravimetric analysis (thermal stability); conditions: for TDTGmax, maximum decomposition temperature: DTG, air atmosphere, 10 °C min−1
Description: The thermal stabilities of the obtained NSAIDs isopropyl ester amino acid salts were investigated. […] The beginning of thermal degradation was evaluated based on the value of onset of the TG curve, which occurs in the first phase of the process. […]
Thermogravimetric analysis (TG)
Thermogravimetric analysis was carried out using Netzsch Proteus Thermal Analy- […]
Samples of 5–8 mg were loaded in Al2O3 […]
ment was performed in an air atmosphere (25 cm3min−1) with nitrogen flow (10 cm3min−1) […]
Differential scanning calorimetry (DSC)
Phase transformation temperatures were determined on a PerkinElmer DSC-7 (Rot-gau, Germany). The samples of 3–5 mg were loaded on the aluminum pan with a crimped lid. Measurements were carried out in a nitrogen atmosphere (20 cm3 min-1). The rate of heating/cooling was 5°C min-1. […]
tained for 30 min inside the furnace, then cooled to 0°C to condition the sample and the crucible. After that, heating was conducted to the specified temperature, followed by cool-ing. Unless otherwise stated, two complete cycles of heating and cooling were performed.
The specified maximum temperature was individual for each compound, determined from TG analysis, and it was at least 10°C lower than the onset decomposition tempera-ture. Temperatures reported from DSC data are curve peaks, the melting points being endothermic upon heating and crystallization point being exothermic upon cooling. Lead, indium, tin, and zinc were used as standards to calibrate the temperature. Indium was used for enthalpy measurement calibration. […]

[5] = system: Escherichia coli; assay: Disc diffusion antimicrobial susceptibility test, Escherichia coli; format: cell-based; parameters: key to Inhibition diameter: -: no growth of the organism
Description: as §1

[6] = DTG; cited from earlier work
[7] = solution transferred to disc 25 mg cm^−3
[8] = solution transferred to disc 50 mg cm^−3
[9] = solution transferred to disc 100 mg cm^−3
[10] = solution transferred to disc 200 mg cm^−3
[11] = solution transferred to disc 400 mg cm^−3
[12] = solution transferred to disc 600 mg cm^−3
[13] = solution transferred to disc 800 mg cm^−3
[14] = solution transferred to disc 1000 mg cm^−3

Row | Structure (SMILES) | Inhibition diameter [2, 7] | Inhibition diameter [2, 8] | Inhibition diameter [2, 9] | Inhibition diameter [2, 10] | Inhibition diameter [2, 11] | Inhibition diameter [2, 12] | Inhibition diameter [2, 13] | Inhibition diameter [2, 14] | Inhibition diameter [3, 7] | Inhibition diameter [3, 8] | Inhibition diameter [3, 9] | Inhibition diameter [3, 10] | Inhibition diameter [3, 11] | Inhibition diameter [3, 12] | Inhibition diameter [3, 13] | Inhibition diameter [3, 14] | Inhibition diameter [5, 7] | Inhibition diameter [5, 8] | Inhibition diameter [5, 9] | Inhibition diameter [5, 10] | other results
1 | CC[C@H](C)[C@H](N)C(=O)OC(C)C.COc1ccc2cc([C@H](C)C(=O)O)ccc2c1 [[L-IleOiPr][NAP], L-isoleucine isopropyl ester naproxenate] | 6.4 ± 0.1 mm | 6.7 ± 0.1 mm | 7.0 ± 0.1 mm | 7.3 ± 0.1 mm | 7.5 ± 0.2 mm | 8.1 ± 0.6 mm | 8.7 ± 0.1 mm | 9.5 ± 0.1 mm | - | - | - | - | - | 12.0 ± 0.3 mm | 12.4 ± 0.2 mm | 13.5 ± 0.3 mm | - | - | - | - | Log(KS) formation constant [1]: 6.11; TTGonset, the onset of the thermal degradation [4]: 127.0 °C; TDTGmax, maximum decomposition temperature [4]: 287.4 °C; Inhibition diameter [5, 11]: -; Inhibition diameter [5, 12]: -; Inhibition diameter [5, 14]: -
2 | CC(C)OC(=O)[C@@H](N)C(C)C.COc1ccc2cc([C@H](C)C(=O)O)ccc2c1 [[L-ValOiPr][NAP]] | 6.2 ± 0.1 mm | 6.3 ± 0.1 mm | 6.4 ± 0.1 mm | 7.2 ± 0.1 mm | 7.3 ± 0.1 mm | 7.4 ± 0.2 mm | 8.2 ± 0.2 mm | 8.6 ± 0.2 mm | - | - | - | - | - | - | 6.6 ± 0.3 mm | 7.4 ± 0.1 mm | - | - | - | - | Log(KS) formation constant [1]: 5.89; TDTGmax, maximum decomposition temperature [6]: 275.8 [48] °C; Inhibition diameter [5, 11]: -; Inhibition diameter [5, 12]: -; Inhibition diameter [5, 14]: -
3 | CC(C)OC(=O)[C@@H](N)[C@@H](C)O.COc1ccc2cc([C@H](C)C(=O)O)ccc2c1 [[L-ThrOiPr][NAP], L-threonine isopropyl ester naproxenate] | 6.2 ± 0.1 mm | 6.6 ± 0.1 mm | 6.9 ± 0.1 mm | 7.6 ± 0.1 mm | 8.5 ± 0.1 mm | 8.8 ± 0.2 mm | 9.6 ± 0.1 mm | 10.8 ± 0.5 mm | - | - | - | - | - | - | - | - | - | - | - | - | inhibition zone (in words) ([3]; S. epidermidis, tested concentrations): no inhibition zone was observed; TTGonset, the onset of the thermal degradation [4]: 145.8 °C; TDTGmax, maximum decomposition temperature [4]: 295.3 °C; Inhibition diameter [5, 11]: -; Inhibition diameter [5, 12]: -; Inhibition diameter [5, 14]: -
4 | CC(C)Cc1ccc(C(C)C(=O)O)cc1.CC(C)OC(=O)[C@@H](N)[C@@H](C)O [[L-ThrOiPr][IBU], L-threonine isopropyl ester ibuprofenate] | 7.3 ± 0.2 mm | 10.4 ± 0.2 mm | 15.5 ± 0.2 mm | 16.3 ± 0.1 mm | 17.0 ± 0.2 mm | 17.5 ± 0.1 mm | 18.2 ± 0.2 mm | 19.3 ± 0.2 mm | 7.5 ± 0.2 mm | 10.5 ± 0.2 mm | 15.4 ± 0.1 mm | 16.9 ± 0.2 mm | 17.5 ± 0.2 mm | 18.3 ± 0.2 mm | 19.8 ± 1.4 mm | 23.2 ± 0.1 mm | - | - | - | - | Log(KS) formation constant [1]: 6.47; TDTGmax, maximum decomposition temperature [6]: 209.9 [50] °C; Inhibition diameter [5, 11]: -; Inhibition diameter [5, 12]: -; Inhibition diameter [5, 14]: -
